Source: patent publication US20050124668A1, “Amino acids with affinity for the alpha2delta-protein” (priority 2003, published 2005)

Key:
[1] = target: T1, α2δ-subunit of a calcium channel (Sus scrofa, UniProt A0A287BIN3); assay: radioligand binding assay using [3H]-gabapentin; conditions: α2δ-subunit derived from porcine brain tissue
T1 construct: the α2δ-subunit derived from porcine brain tissue was used; from tissue; host or cells: porcine brain tissue
Excerpt: The ability of compounds of the present invention to bind to the α2δ-subunit of a calcium channel can be determined using the following binding assay.
The radioligand binding assay using [^3H]-gabapentin and the α2δ-subunit derived from porcine brain tissue was used. See Nicolas S. Gee et al., “The novel anticonvulsant drug, gabapentin (Neurontin), binds to the α2 subunit of a calcium channel,” J. Biol. Chem. 271 (10):5768-76 (1996). Compounds of the invention bind with nanomolar to micromolar affinity for the α2δ protein.

T1 sequence (A0A287BIN3 25-1109): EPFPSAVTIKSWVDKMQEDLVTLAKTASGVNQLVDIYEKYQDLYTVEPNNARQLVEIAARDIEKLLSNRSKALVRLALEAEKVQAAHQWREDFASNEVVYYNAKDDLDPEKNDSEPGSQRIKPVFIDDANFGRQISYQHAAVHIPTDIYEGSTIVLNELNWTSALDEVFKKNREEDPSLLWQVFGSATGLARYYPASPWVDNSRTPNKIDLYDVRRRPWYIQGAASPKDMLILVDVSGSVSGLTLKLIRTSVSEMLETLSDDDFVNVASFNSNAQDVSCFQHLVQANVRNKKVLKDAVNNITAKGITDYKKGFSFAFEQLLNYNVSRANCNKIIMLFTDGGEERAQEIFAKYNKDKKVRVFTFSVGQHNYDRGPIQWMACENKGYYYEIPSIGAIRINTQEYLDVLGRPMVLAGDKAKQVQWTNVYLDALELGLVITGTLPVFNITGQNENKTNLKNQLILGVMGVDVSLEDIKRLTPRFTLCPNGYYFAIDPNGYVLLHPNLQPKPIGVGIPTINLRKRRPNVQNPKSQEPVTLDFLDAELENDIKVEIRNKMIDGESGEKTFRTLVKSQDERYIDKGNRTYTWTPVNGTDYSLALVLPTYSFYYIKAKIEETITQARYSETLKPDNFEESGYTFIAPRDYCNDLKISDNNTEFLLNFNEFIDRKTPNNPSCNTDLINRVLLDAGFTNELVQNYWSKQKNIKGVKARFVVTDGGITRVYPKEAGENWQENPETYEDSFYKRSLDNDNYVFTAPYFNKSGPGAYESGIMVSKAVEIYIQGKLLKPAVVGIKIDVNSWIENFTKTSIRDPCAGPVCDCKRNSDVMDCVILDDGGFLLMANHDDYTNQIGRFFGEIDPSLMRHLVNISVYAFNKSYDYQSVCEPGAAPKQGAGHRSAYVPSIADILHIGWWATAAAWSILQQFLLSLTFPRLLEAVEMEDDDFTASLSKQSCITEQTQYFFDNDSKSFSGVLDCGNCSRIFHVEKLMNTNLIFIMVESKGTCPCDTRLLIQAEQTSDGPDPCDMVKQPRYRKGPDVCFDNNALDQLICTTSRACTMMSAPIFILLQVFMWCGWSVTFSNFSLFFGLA

Structure (SMILES) | melting point [°C] | affinity to the α2δ protein [1] [nM]
CC[C@H](C)C[C@](C)(N)CC(=O)O | 215 to 217 | 
CC[C@@H](C)C[C@](C)(N)CC(=O)O [(3S,5R)-3-amino-3,5-dimethyl-heptanoic acid] |  | 236
CCC(CC)C[C@](C)(N)CC(=O)O [(S)-3-amino-5-ethyl-3-methyl-heptanoic acid] |  | 149
CCCCC(CC)CCC(CN)C(=O)O (stereo not shown) [2-aminomethyl-5-ethyl-nonanoic acid] |  | 75
